Reference: patent publication US8486945B2, “Heterocyclic inhibitors of an Hh-signal cascade, medicinal compositions based thereon and methods for treating diseases caused by the aberrant activity of an Hh-signal system” (priority 2007, dated 2013)
Read-outs that look alike come from different tables or passages of the source.

How the values were obtained:
[1] = test system: Hh-signalling cascade; test: Inhibition of SHh-induced alkaline phosphatase in C3H10T1/2 cells (Hh-signalling cascade inhibition); format: cell-based; details: Mus musculus, C3H 10T1/2, half maximal inhibition of SHh (0.3 μg/ml) stimulation of cell alkaline phosphatase
How it was run: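 C3H10T1/2 cells preincubated 30 min with compound (screen at 10 μM; IC50 from triplicate dilution series), then stimulated with 0.3 μg/ml recombinant SHh for 3 days at 37 °C. Alkaline phosphatase measured by CSPD luminescence in 0.2% Triton-X100 lysates; IC50 = half-maximal inhibition of SHh-induced activity.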

[2] = Pharmacokinetic investigation in mice (PO and IP); format: in vivo, mice of BALB/c line; details: BALB/c, mouse, plasma; for half-life: read-out: T½
Procedure: Pharmacokinetic investigations were carried out on mice of BALB/c line. All animals were divided into three groups in a random manner: two experimental groups were used for pharmacokinetic analyses at peroral (PO) and intraperitoneal (IP) ways of substance introduction in various doses, and the control group for getting intact blood plasma.
Blood samples were taken by decapitation of animals before introduction of medicament (control samples), and by decapitation in 5, 15, 30, 60, 120 and 240 minutes after introduction of medicament. Three mice were used for each time interval point.
Analysis of samples comprising compounds of the general formulas I-VIII was carried out by Chromato-Mass-Spectrometry method. The data were analysed by means of software package WinNonLin (Pharsight, CIIIA).
Oral bioavailability % F of compounds of the general formulas I-VIII was calculated on the basis of experimental results according to the following equation: % F=[AUC0→t,(PO)/AUC0→t,(IP)]×100%.

[3] = Maximum tolerated dose, intraperitoneal once daily for 5 days; details: mouse, in vivo, ip, male SHK mice
Procedure: Maximum tolerated dose of compounds was determined in tests on male mice of SHK line by intraperitoneal once daily introduction of the compounds in doses from 30 to 300 mg/kg during 5 days. 8 Mice were used in each group. Weight of mice and also animals' mortality were registered. […] According to the classification of chemical compounds toxicity the investigated compounds may be referred to low-toxic substances.

[4] = test system: transcription factor Gli1; test: Suppression of transcription factor Gli1 induction in Panc1 cell culture; format: cell-based, human; details: 20 mkM, 72 hours, Panc1 cells
Procedure: Examples of suppression of the transcription factor Gli1 induction in human's tumor cell culture Panc1 by compounds of the general formulas I-VIII are presented in FIG. 2. […] This effect could be enhanced at combined action of the tested compound and kinas inhibitor (oncolitic Iressa). For caning out the experiments the tumour cell culture Panc1 was cultivated for 72 hours in the presence of 20 mkM of tested compounds.
Measurements of expression level Gli1 were carried out by determination of HGli mRNA amount according to the method [Lauth M., Bergstrom A., Shimokawa T., Toftgard R. Inhibition of GLI-mediated transcription and tumor cell growth by small-molecule antagonists. PNAS. 2007, 104(20): 8455-8460].

[5] = Pharmacokinetic investigation in mice (PO and IP); format: in vivo, mice of BALB/c line; details: BALB/c, mouse, plasma, read-out: % F (PO/IV)
[6] = molecular target: T1, Smo receptors (Homo sapiens, UniProt Q99835); test: Displacement of bodipy-cyclopamine from Smo receptors in Smo-HEK cells; format: binding; details: half-maximal displacement of bodipy-cyclopamine
T1 construct: expressed in transfected cells; host or cells: HEK cells (Smo-HEK)
T1 sequence (Q99835 28-787): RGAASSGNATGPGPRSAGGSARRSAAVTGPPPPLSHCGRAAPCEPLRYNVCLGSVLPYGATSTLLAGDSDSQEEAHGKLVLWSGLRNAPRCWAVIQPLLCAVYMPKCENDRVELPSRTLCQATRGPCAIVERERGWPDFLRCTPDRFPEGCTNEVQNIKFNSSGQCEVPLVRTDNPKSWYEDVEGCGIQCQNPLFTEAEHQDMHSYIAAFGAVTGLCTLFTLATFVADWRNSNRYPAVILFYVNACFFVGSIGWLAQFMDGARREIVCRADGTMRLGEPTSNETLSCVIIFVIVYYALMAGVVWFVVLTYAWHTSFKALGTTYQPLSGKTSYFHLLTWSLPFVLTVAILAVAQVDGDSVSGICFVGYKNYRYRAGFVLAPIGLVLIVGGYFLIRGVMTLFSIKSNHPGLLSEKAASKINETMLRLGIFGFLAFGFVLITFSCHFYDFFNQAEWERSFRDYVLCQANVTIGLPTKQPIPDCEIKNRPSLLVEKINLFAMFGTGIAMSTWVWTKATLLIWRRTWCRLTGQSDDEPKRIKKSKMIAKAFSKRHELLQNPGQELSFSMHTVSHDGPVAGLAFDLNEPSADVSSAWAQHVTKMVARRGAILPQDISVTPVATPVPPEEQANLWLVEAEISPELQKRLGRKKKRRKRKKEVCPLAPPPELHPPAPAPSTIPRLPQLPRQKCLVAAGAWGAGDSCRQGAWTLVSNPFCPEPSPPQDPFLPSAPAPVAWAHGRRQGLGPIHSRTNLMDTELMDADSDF
Procedure: Binding parameters to Smo receptors for some of compounds of the general formulas I-VIII are presented in table 11 as the values of half-maximal displacement of cyclopamine labelled with fluorescent dye (bodipy-cyclopamine). The tests were carried out for Smo-HEK cells, comprising artificially expressed protein Smo.

[7] = test system: human's pancreatic carcinoma Panc1; test: Antitumour activity in Panc1 xenograft mice model; format: in vivo, mice Balb-c/nude
Procedure: Example of antitumour activity of compound III-1029 towards human's pancreatic carcinoma model Panc1, implanted to immunodeficient transgenic (naked) mice Balb-c/nude, is presented in FIG. 3. Mice of 8 weeks age which were implanted with pancreatic carcinoma by injection of 4×10^6 tumour cells were used in the experiments. Introduction of tested compound (peroral 50 mg/kg, daily during 14 days) was started in 7 days after transplantation of tumour (an average size of tumour was 30-60 mm^3). As a result of the tests it was shown that under the said way of introduction compound III-1029 suppresses tumour growth on 67% in comparison with the control group (mice with implanted tumour not treated with compound III-1029).
Example of antitumour activity of compounds III-1017 and III-1011 towards human's pancreatic carcinoma Panc1, implanted to immunodeficient transgenic (naked) mice Balb-c/nude, is presented in FIG. 4. Mice of 8 weeks age which were implanted with pancreatic carcinoma by injection of 4×10^7 tumour cells were used in the experiments. Introduction of tested compound (intraperitoneally […], daily during 21 days) was started in 8 days after transplantation of tumour (an average size of tumour is 60-140 mm^3). As a result of the tests it was shown that under the said way of introduction compounds III-1017 and III-1011 suppress tumour growth on 27 and 46% in comparison with the control group (mice with implanted tumour not treated with the tested compounds).

[8] = intraperitoneally 100 m mg/kg, daily during 21 days

Question: Which results are given for `COc1cccc(N2CCN(C(=O)Cn3nc(C)c4c(C)n(-c5ccccc5)nc4c3=O)CC2)c1` [I-1001, 2-Phenyl-3,4-dimethyl-6-{2-[4-(3-methoxyphenyl)piperazin-1-yl]-2-oxoethyl}-2,6-dihydro-7H-pyrazolo[3,4-d]pyridazin-7-one]?
Answer: IC50 [1]: < 500 nM; half-life ([2]; PO, 5 mg/Kg): 125 min; Cmax ([2]; PO, 20 mg/Kg): 4460 ng/mL; MTD at 5 days [3]: > 200 mg/kg; Suppression of Gli1 expression (HGli mRNA) [4]: block effectively Hh-signalling cascade; bioavailability [5]: 35%

Question: Which IC50 [6] does the source give for `Cc1cccn2cc(-c3ccc(NC(=O)c4ccccc4F)cc3)nc12` [III-1011, 2-Fluoro-N-[4-(8-methylimidazo[1,2-a]pyridin-2-yl)phenyl]benzamide] here?
Answer: 93 nM

Question: What about the Cmax ([2]; IP, 5 mg/Kg) of the same molecule?
Answer: 1040 ng/mL

Question: And the half-life ([2]; IP, 5 mg/Kg)?
Answer: 44 min

Question: And the Cmax ([2]; PO, 5 mg/Kg)?
Answer: 564 ng/mL

Question: What about the half-life ([2]; PO, 5 mg/Kg) of the same molecule?
Answer: 58 min

Question: What about the MTD at 5 days [3] of the same molecule?
Answer: > 200 mg/kg

Question: What about the “Suppression of tumour growth in comparison with the control group” value [7, 8] of the same molecule?
Answer: 46%

Question: And the bioavailability [5]?
Answer: 64%

Question: With `Cc1ccn2cc(-c3cccc(NC(=O)c4sc(-c5ccccc5)nc4C)c3)nc2c1` [III-1017, 4-Methyl-2-phenylthiazol-5-carboxylic acid [3-(7-methylimidazo[1,2-a]pyridin-2-yl)phenyl]amide] as the molecule, how does the IC50 [1] read?
Answer: < 500 nM

Question: And the Cmax ([2]; IP, 5 mg/Kg)?
Answer: 357 ng/mL

Question: And the half-life ([2]; IP, 5 mg/Kg)?
Answer: 67 min

Question: What about the Cmax ([2]; PO, 5 mg/Kg) of the same molecule?
Answer: 398 ng/mL

Question: What about the half-life ([2]; PO, 5 mg/Kg) of the same molecule?
Answer: 55 min

Question: And the MTD at 5 days [3]?
Answer: > 200 mg/kg

Question: What about the “Suppression of tumour growth in comparison with the control group” value [7, 8] of the same molecule?
Answer: 27%

Question: And the bioavailability [5]?
Answer: 19%

Question: What does the source list for `Cc1cccn2cc(-c3ccc(NC(=O)c4ccccc4Br)cc3)nc12` [III-1029, N-[4-(8-Methylimidazo[1,2-a]pyridin-2-yl)phenyl]-2-bromobenzamide]?
Answer: IC50 [1]: < 500 nM; IC50 [6]: 259 nM; half-life ([2]; PO, dose not given): 59 min; MTD at 5 days [3]: > 200 mg/kg; Suppression of Gli1 expression (HGli mRNA) [4]: block effectively Hh-signalling cascade; Suppression of tumour growth in comparison with the control group ([7]; peroral 50 mg/kg, daily during 14 days): 67%; bioavailability [5]: 75%

Question: With `Cc1ccc(S(=O)(=O)N2CCCc3cc(C(=O)Nc4c(C)cc(C)cc4C)ccc32)cc1` [VII-1001, 1-Tosyl-1,2,3,4-tetrahydroquinoline-6-carboxylic acid (2,4,6-mesityl)amide] as the molecule, how does the IC50 [1] read?
Answer: < 500 nM

Question: And the “Suppression of Gli1 expression (HGli mRNA)” value [4]?
Answer: block effectively Hh-signalling cascade

Question: What about the melting point of the same molecule?
Answer: 252 to 255 °C
